Data from US20240408112A1, “METHOD FOR PREVENTING OR TREATING PULMONARY ARTERIAL HYPERTENSION BY USING 7-DEHYDROCHOLESTEROLS OR SALTS, OXIDES, METABOLITES, OR DERIVATIVES THEREOF” (EXCELSIOR PHARMATECH LABS., priority 2023, published 2024).
pEC50: −log10 of the molar value.

Key:
[1] = system: human pulmonary artery smooth muscle cells (hPASMC); assay: BrdU cell proliferation assay, 0.1% FBS, 100 pM TGF-β, hPASMC; assay type: cell-based; settings: hPASMC, 100 pM TGF-β, 0.1% FBS
Procedure: BrdU (5-bromo-2-deoxyuridine) cell proliferation assay (BrdU assay)
A 48-well plate was used, and 1.5×10^4 cells were implanted in each well. After 24 hours, the medium was changed to serum-free culture medium and synchronized for 24 hours. A 2-fold concentration of the compound in serum-free culture medium is prepared and the cells were pretreated for 1 hour. Then, the same volume of culture medium containing 20% fetal bovine serum (FBS) was added to dilute the compound. The final concentration was 10% FBS culture medium and 1 times the concentration of the compound. In the experimental group that added TGF-β, the same volume of TGF-β culture medium containing 10 ng/mL was added, with a final concentration of 5 ng/mL TGF-β and 1 times the concentration of the compound, and in the experimental group added with TGF-β, the entire process was conducted in culture medium containing 0.1% serum. Then, BrdU reagent was added about 6 hours later, and the cells were collected the next day for enzyme-linked immunosorbent assay (ELISA) analysis, the compound treatment time was about 24 hours, and the BrdU treatment time was about 18 hours.
Five compounds to be tested were screened by cell survival assay (MTT assay) and BrdU (5-bromo-2-deoxyuridine) cell proliferation assay, and the information of these compounds was listed in Table 1 below. Tables 2 and 3 respectively listed the growth inhibitions of on human pulmonary artery endothelial cells (hPAEC), human pulmonary artery smooth muscle cells (hPASMC), normal rat pulmonary artery smooth muscle cells (rPASMC, as the control group, represented by “CON”), and rat pulmonary artery smooth muscle cells (represented by “MCT”), by the five compounds to be tested under the conditions of 10% FBS, 0.1% FBS and 100 pM TGF-β.

[2] = system: monocrotaline induced pulmonary hypertension rat; assay: Monocrotaline-induced pulmonary arterial hypertension rat model, Example 2 (7-DHC, 042); assay type: in vivo; settings: for Arterial gas analysis pH value, PaO2 and PaCO2, in words: between groups CON, MCT and treated; for Base excess (BE) value: MCT group −5.5, normal −2 to +2
Description: (§1) Pulmonary arterial hypertension animal experimental model
(§2) The present disclosure utilizes injection of monocrotaline to induce symptoms of pulmonary arterial hypertension in rats to establish a pulmonary arterial hypertension animal experimental model suitable for screening test drugs.
(§3) The diagnostic method of clinical pulmonary arterial hypertension standards is right heart catheterization, which is defined as mean pulmonary arterial pressure (mPAP) greater than or equal to 20 mmHg. The diagnostic criteria for pulmonary arterial hypertension, in addition to an increase in mean pulmonary arterial pressure, need to be combined with pulmonary vascular resistance (PVR) greater than 3 Wood unit. The right ventricle pressure (RVP) and systemic mean blood pressure (mbp) in rats with pulmonary arterial hypertension were measured by Millar Model PCU200 pressure system, and the heart rate (HR) was also monitored at the same time. After measuring the hemodynamic data, the arterial blood was extracted from the carotid artery of the pulmonary arterial hypertension rat, and the Abbott blood oximeter (i-STAT) combined with Abbott's special chip cartridge (i-STAT Cartridge G3+) was used to measure arterial gas analysis data such as pH, PaO2, PaCO2, HCO3 and base excess (BE) value in quantitative whole blood samples. The normal pH value is between 7.35 and 7.45, and the pH value indicates whether the experimental animal has the condition of acidemia, alkalemia, acidosis or alkalosis. The normal value of PaO2 is between 80 and 100 mmHg, which reflects the effectiveness of gas exchange (ventilation/perfusion). The normal value of PaCO2 is between 35 and 45 (such as 38 and 42) mmHg, which can evaluate the effectiveness of alveolar ventilation. The acid produced by food, tissue decomposition, inflammation and hypoxia rely on the lungs to excrete volatile acid CO2 (short-term) and the bicarbonate (HCO3^−) produced by the kidneys (long-term) to neutralize non-volatile acids, while the normal value of bicarbonate hydrogen radical (HCO3^−) is between 22 and 26 meq/L. BE is the base excess value, its normal value ranges from −2 to +2, the negative value represents the degree of alkali ion deficiency in the blood, a negative BE value (−) that is too high indicates metabolic acidosis, and a positive value (+) that is too high is metabolic alkalosis. At the end of the experiment, the rats were sacrificed and their hearts were removed and the left and right ventricles were separated and weighed (RV)/(S)+(LV).
Monocrotaline (MCT) was utilized to induce pulmonary hypertension rat animal model, the TGF-β receptor inhibitor 7-DHC (039) and compound No. 042 were tested via intraperitoneal (IP) administration, and the physiological parameters of the animals were collected, wherein includes measuring right ventricle pressure, systemic arterial pressure, heartbeat and right ventricle hypertrophy, as well as observing and analyzing the pulmonary artery thickening and blood oxygenation levels through pathological sections of lung tissue. Specifically, 7-DHC (039) was divided into two groups with a dosage of 10 mg/kg or 20 mg/kg, the dosage of group 042 was 50 mg/kg, each dosage group has 3 rats (n=3), while the control group (CON) and the pulmonary arterial hypertension rat group (MCT) had 6 rats (n=6) respectively.

[3] = system: monocrotaline induced pulmonary arterial hypertension rat; assay: Monocrotaline-induced pulmonary arterial hypertension rat model, Example 3 (7-DHC vs macitentan); assay type: in vivo; settings: for Right ventricle pressure (RVP): 25th day after monocrotaline induction, MCT rats 28.97 mmHg; for Arterial gas analysis PaO2 and PaCO2, in words: between groups CON, MCT and treated; for Thickening of pulmonary arteries, in words: p<0.001, vs MCT rats (exceeded 65%); for Base excess (BE) value: MCT group −6, normal −2 to +2; for Average right ventricle hypertrophy ratio (RV/S+LV): MCT rats 71.64%, normal rats 26.7%
Description: as §1, §2, §3
Monocrotaline was utilized to induce pulmonary arterial hypertension rat animal model, intraperitoneal injection (IP) TGF-β receptor inhibitor 7-DHC (039) and oral administration of macitentan (soluble in methylcellulose), 7-DHC (039) was divided into two groups according to the dosage: 10 mg/kg or 20 mg/kg, and the dosage of macitentan group was 30 mg/kg.

## CC(C)CCCC(C)C1CCC2C3=CC=C4CC(O)CCC4(C)C3CCC21C (stereo not drawn) [Code 039, 7-DHC]
[1]; Homo sapiens, read-out: EC50
  pEC50: 4.62
[1]; 25 μM, FIG. 3
  Inhibition of cell growth (in words): inhibition of cell growth
[2]; 10 mg/kg IP
  Arterial gas analysis pH value, PaO2 and PaCO2, in words: did not show any significant differences
  Base excess (BE) value: −2
[2]; 10 mg/kg IP, p<0.001, vs MCT rats (exceeded 55%)
  Thickness of the pulmonary artery blood vessels (medial wall thickness), in words: significantly reduced
[2]; 20 mg/kg IP, 23rd day after monocrotaline induction
  Animal survival status: had died
[2]; 20 mg/kg IP
  Arterial gas analysis pH value, PaO2 and PaCO2, in words: did not show any significant differences
  Base excess (BE) value: 0
[2]; 10 or 20 mg/kg IP
  Systemic blood pressure and heartbeat, in words: did not reduce
[2]; 10 or 20 mg/kg IP, vs MCT rats (28 mmHg)
  Right ventricle pressure (RVP), in words: can be reduced
[3]; 10 mg/kg IP
  Right ventricle pressure (RVP): 17.61 mmHg
  Arterial gas analysis PaO2 and PaCO2, in words: no significant difference
  Thickening of pulmonary arteries, in words: significantly reduced
  Base excess (BE) value: −3
  Average right ventricle hypertrophy ratio (RV/S+LV): 53.96%
[3]; 20 mg/kg IP
  Activity of the rats: did not affect
  Survival rate: 100%
  Weight of rats: decreased significantly
  Right ventricle pressure (RVP): 19.96 mmHg
  Arterial gas analysis PaO2 and PaCO2, in words: no significant difference
  Thickening of pulmonary arteries, in words: significantly reduced
  Base excess (BE) value: −1.4
  Average right ventricle hypertrophy ratio (RV/S+LV): 62.97%
[3]; 10 or 20 mg/kg IP
  Systemic average blood pressure and heartbeat, in words: did not significantly reduce
